Assay results taken from patent US20020051978A1, “Methods and compositions for the identification, assessment, prevention and therapy of human cancers” (priority 2000, published 2002).
Like-named read-outs stand apart in the source and are kept apart here.

Columns and labels:
[1] = test system: 60 cancer cell lines (NCI 60 cancer cell line series); test: NCI-DTP in vitro cancer screen, sulforhodamine B (SRB) growth inhibition, 48 hour exposure; format: cell-based, human; design: key to sensitivity class Ovarian OVCAR-8 CL6005 / sensitivity class Ovarian SK-OV-3 CL6011 / sensitivity class Prostate DU-145 CL11003 / sensitivity class NSCLC NCI-H522 CL1003 / sensitivity class Ovarian IGROV1 CL6010 / sensitivity class Ovarian OVCAR-4 CL6002 / sensitivity class Prostate PC-3(I) CL11001 / sensitivity class Renal A498 CL9013 / sensitivity class Renal SN12C CL9008: sensitivity class: 1 = Low, 2 = Medium, 3 = High
Outline: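 Values come from the NCI-DTP screen database: -log GI50, the concentration giving 50% growth inhibition, derived from SRB cell-mass dose-response curves. Each line seeded at its own density, treated day 1 at five ten-fold-spaced doses in duplicate wells, stained after 48 h.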

[2] = test system: 60 cancer cell lines (NCI 60 cancer cell line series); details: cited from earlier work

O=c1[nH]cc(F)c(=O)[nH]1 [5-Fluorouracil]
classification of cell line as Low(1), Medium(2) or High(3) sensitivity to compound ([1]; Breast BT-549 (CL5013)): 1 | classification of cell line as Low(1), Medium(2) or High(3) sensitivity to compound ([1]; Breast HS-578T CL5006): 1 | classification of cell line as Low(1), Medium(2) or High(3) sensitivity to compound ([1]; Breast MCF7(I) (CL5001)): 3 | classification of cell line as Low(1), Medium(2) or High(3) sensitivity to compound ([1]; Breast MCF7/ADRr (CL5002)): 2 | classification of cell line as Low(1), Medium(2) or High(3) sensitivity to compound ([1]; Breast MDA-MB-231 CL5005): 1 | classification of cell line as Low(1), Medium(2) or High(3) sensitivity to compound ([1]; Breast MDA-MB-435 (CL5011)): 2 | classification of cell line as Low(1), Medium(2) or High(3) sensitivity to compound ([1]; Breast MDA-N CL5012): 2 | classification of cell line as Low(1), Medium(2) or High(3) sensitivity to compound ([1]; Breast T-47D (CL5014)): 2 | classification of cell line as Low(1), Medium(2) or High(3) sensitivity to compound ([1]; CNS SF-268 CL12014): 2 | classification of cell line as Low(1), Medium(2) or High(3) sensitivity to compound ([1]; CNS SF-295 CL12015): 2 | classification of cell line as Low(1), Medium(2) or High(3) sensitivity to compound ([1]; CNS SF-539 CL12016): 3 | classification of cell line as Low(1), Medium(2) or High(3) sensitivity to compound ([1]; CNS SNB-19 (CL12002)): 1 | classification of cell line as Low(1), Medium(2) or High(3) sensitivity to compound ([1]; CNS SNB-75(I) CL12005): 1 | classification of cell line as Low(1), Medium(2) or High(3) sensitivity to compound ([1]; CNS U251(I) CL12009): 2 | classification of cell line as Low(1), Medium(2) or High(3) sensitivity to compound ([1]; Colon COLO-250 CL4010): 2 | classification of cell line as Low(1), Medium(2) or High(3) sensitivity to compound ([1]; Colon HCC-2998 (CL4002)): 3 | classification of cell line as Low(1), Medium(2) or High(3) sensitivity to compound ([1]; Colon HCT-15 CL4015): 2 | classification of cell line as Low(1), Medium(2) or High(3) sensitivity to compound ([1]; Colon HCT-116 (CL4003)): 3 | classification of cell line as Low(1), Medium(2) or High(3) sensitivity to compound ([1]; Colon HT29(I) CL4001): 2 | classification of cell line as Low(1), Medium(2) or High(3) sensitivity to compound ([1]; Colon KM12 (CL4017)): 2 | classification of cell line as Low(1), Medium(2) or High(3) sensitivity to compound ([1]; Colon SW-620 (CL4009)): 2 | classification of cell line as Low(1), Medium(2) or High(3) sensitivity to compound ([1]; Leukemia CCRF-CEM(I) (CL7003)): 2 | classification of cell line as Low(1), Medium(2) or High(3) sensitivity to compound ([1]; Leukemia HL-60(I) (CL7008)): 2 | classification of cell line as Low(1), Medium(2) or High(3) sensitivity to compound ([1]; Leukemia K562(I) CL7005): 2 | classification of cell line as Low(1), Medium(2) or High(3) sensitivity to compound ([1]; Leukemia MOLT-4 (CL7006)): 2 | classification of cell line as Low(1), Medium(2) or High(3) sensitivity to compound ([1]; Leukemia RPMI-8226(I) (CL7010)): 3 | classification of cell line as Low(1), Medium(2) or High(3) sensitivity to compound ([1]; Leukemia SR CL7019): 2 | classification of cell line as Low(1), Medium(2) or High(3) sensitivity to compound ([1]; Melanoma LOX IMVI CL10001): 2 | classification of cell line as Low(1), Medium(2) or High(3) sensitivity to compound ([1]; Melanoma M14 (CL10014)): 2 | classification of cell line as Low(1), Medium(2) or High(3) sensitivity to compound ([1]; Melanoma MALME-3M CL10002): 2 | sensitivity class NSCLC NCI-H23(I) CL1001 ([1]; cell line NSCLC NCI-H23(I), CL1001): 2 | sensitivity class NSCLC NCI-H332M CL1017 ([1]; cell line NSCLC NCI-H332M, CL1017): 2 | sensitivity class NSCLC NCI-H460 CL1021 ([1]; cell line NSCLC NCI-H460, CL1021): 3 | sensitivity class NSCLC NCI-H522 CL1003 ([1]; cell line NSCLC NCI-H522, CL1003): 2 | sensitivity class Ovarian IGROV1 CL6010 ([1]; cell line Ovarian IGROV1, CL6010): 2 | sensitivity class Ovarian OVCAR-3 CL6001 ([1]; cell line Ovarian OVCAR-3, CL6001): 2 | sensitivity class Ovarian OVCAR-4 CL6002 ([1]; cell line Ovarian OVCAR-4, CL6002): 2 | sensitivity class Ovarian OVCAR-5 CL6003 ([1]; cell line Ovarian OVCAR-5, CL6003): 1 | sensitivity class Ovarian OVCAR-8 CL6005 ([1]; cell line Ovarian OVCAR-8, CL6005): 2 | sensitivity class Ovarian SK-OV-3 CL6011 ([1]; cell line Ovarian SK-OV-3, CL6011): 1 | sensitivity class Prostate DU-145 CL11003 ([1]; cell line Prostate DU-145, CL11003): 2 | sensitivity class Prostate PC-3(I) CL11001 ([1]; cell line Prostate PC-3(I), CL11001): 2 | sensitivity class Renal 786-O CL9018 ([1]; cell line Renal 786-O, CL9018): 2 | sensitivity class Renal A498 CL9013 ([1]; cell line Renal A498, CL9013): 2 | sensitivity class Renal ACHN CL9023 ([1]; cell line Renal ACHN, CL9023): 2 | sensitivity class Renal CAKI-1 CL9015 ([1]; cell line Renal CAKI-1, CL9015): 3 | sensitivity class Renal RXF-393 CL9016 ([1]; cell line Renal RXF-393, CL9016): 2 | sensitivity class Renal SN12C CL9008 ([1]; cell line Renal SN12C, CL9008): 2 | sensitivity class Renal TK10 CL9024 ([1]; cell line Renal TK10, CL9024): 1 | sensitivity class Renal UO-31 CL9004 ([1]; cell line Renal UO-31, CL9004): 2 | -Log (GI50) ([2]; Breast BT-549 (CL5013)): 4.0 | -Log (GI50) ([2]; Breast HS-578T CL5006): 3.7 | -Log (GI50) ([2]; Breast MCF7(I) (CL5001)): 5.7 | -Log (GI50) ([2]; Breast MCF7/ADRr (CL5002)): 4.4 | -Log (GI50) ([2]; Breast MDA-MB-231 CL5005): 3.4 | -Log (GI50) ([2]; Breast MDA-MB-435 (CL5011)): 4.9 | -Log (GI50) ([2]; Breast MDA-N CL5012): 5.0 | -Log (GI50) ([2]; Breast T-47D (CL5014)): 4.2 | -Log (GI50) ([2]; CNS SF-268 CL12014): 4.3 | -Log (GI50) ([2]; CNS SF-295 CL12015): 4.3 | -Log (GI50) ([2]; CNS SF-539 CL12016): 6.1 | -Log (GI50) ([2]; CNS SNB-19 (CL12002)): 3.9 | -Log (GI50) ([2]; CNS SNB-75(I) CL12005): 3.8 | -Log (GI50) ([2]; CNS U251(I) CL12009): 4.3 | -Log (GI50) ([2]; Colon COLO-250 CL4010): 5.2 | -Log (GI50) ([2]; Colon HCC-2998 (CL4002)): 5.9 | -Log (GI50) ([2]; Colon HCT-15 CL4015): 5.2 | -Log (GI50) ([2]; Colon HCT-116 (CL4003)): 5.4 | -Log (GI50) ([2]; Colon HT29(I) CL4001): 5.2 | -Log (GI50) ([2]; Colon KM12 (CL4017)): 4.9 | -Log (GI50) ([2]; Colon SW-620 (CL4009)): 4.6 | -Log (GI50) ([2]; Leukemia CCRF-CEM(I) (CL7003)): 4.5 | -Log (GI50) ([2]; Leukemia HL-60(I) (CL7008)): 4.9 | -Log (GI50) ([2]; Leukemia K562(I) CL7005): 4.8 | -Log (GI50) ([2]; Leukemia MOLT-4 (CL7006)): 4.9 | -Log (GI50) ([2]; Leukemia RPMI-8226(I) (CL7010)): 5.3 | -Log (GI50) ([2]; Leukemia SR CL7019): 5.2 | -Log (GI50) ([2]; Melanoma LOX IMVI CL10001): 5.2 | -Log (GI50) ([2]; Melanoma M14 (CL10014)): 4.3 | -Log (GI50) ([2]; Melanoma MALME-3M CL10002): 4.6 | -Log (GI50) ([2]; NCSLC NCI-H522 CL1003): 4.4 | -Log (GI50) ([2]; NSCLC NCI-H23(I) CL1001): 5.0 | -Log (GI50) ([2]; NSCLC NCI-H332M CL1017): 4.4 | -Log (GI50) ([2]; NSCLC NCI-H460 CL1021): 5.9 | -Log (GI50) ([2]; Ovarian IGROV1 CL6010): 4.8 | -Log (GI50) ([2]; Ovarian OVCAR-3 CL6001): 4.4 | -Log (GI50) ([2]; Ovarian OVCAR-4 CL6002): 4.1 | -Log (GI50) ([2]; Ovarian OVCAR-5 CL6003): 3.8 | -Log (GI50) ([2]; Ovarian OVCAR-8 CL6005): 4.8 | -Log (GI50) ([2]; Ovarian SK-OV-3 CL6011): 3.8 | -Log (GI50) ([2]; Prostate DU-145 CL11003): 5.1 | -Log (GI50) ([2]; Prostate PC-3(I) CL11001): 4.3 | -Log (GI50) ([2]; Renal 786-O CL9018): 4.9 | -Log (GI50) ([2]; Renal A498 CL9013): 5.0 | -Log (GI50) ([2]; Renal ACHN CL9023): 5.0 | -Log (GI50) ([2]; Renal CAKI-1 CL9015): 5.3 | -Log (GI50) ([2]; Renal RXF-393 CL9016): 4.2 | -Log (GI50) ([2]; Renal SN12C CL9008): 4.5 | -Log (GI50) ([2]; Renal TK10 CL9024): 3.6 | -Log (GI50) ([2]; Renal UO-31 CL9004): 5.2
